target: Beta-3 Adrenergic Receptor (Homo sapiens (Human), UniProt P13945); test: HTRF cAMP antagonist assay (IC50 determination); format: cell-based; details: CHO-K1 cells stably expressing recombinant receptor; antagonism of isoproterenol at EC90; cAMP readout
Method in brief: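 In this functional readout, recombinant CHO-K1 cells received compound, then isoproterenol at its EC90. After 1 h at room temperature, cAMP levels were determined by HTRF using an on-plate standard curve, and IC50 values were fitted.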

Sequence of Beta-3 Adrenergic Receptor (P13945 whole entry, species assumed): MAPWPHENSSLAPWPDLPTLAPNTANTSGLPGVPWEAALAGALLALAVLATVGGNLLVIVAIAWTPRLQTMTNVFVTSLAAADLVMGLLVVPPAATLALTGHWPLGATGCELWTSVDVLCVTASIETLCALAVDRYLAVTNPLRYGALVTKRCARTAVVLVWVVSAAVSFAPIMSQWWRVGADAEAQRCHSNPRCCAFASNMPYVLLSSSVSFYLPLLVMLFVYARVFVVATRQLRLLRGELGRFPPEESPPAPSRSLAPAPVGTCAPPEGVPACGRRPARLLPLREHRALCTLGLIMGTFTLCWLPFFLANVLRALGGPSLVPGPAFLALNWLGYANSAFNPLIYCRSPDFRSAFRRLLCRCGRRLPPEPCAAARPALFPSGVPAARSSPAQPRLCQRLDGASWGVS

Compound	IC50 [nM]
Cc1ccnc(-c2cccc(S(=O)(=O)N3CCC4(CC3)C[C@@H](NC[C@H](O)COc3cccc(S(=O)(=O)CCO)c3)CO4)c2)c1 [Compound 129, (S)-1-(3-(2-hydroxyethylsulfonyl)phenoxy)-3-((R)-8-(3-(4-methylpyridin-2-yl)phenylsulfonyl)-1-oxa-8-azaspiro[4.5]decan-3-ylamino)propan-2-ol]	485
COCCCS(=O)(=O)c1cccc(OC[C@@H](O)CN[C@H]2COC3(CCN(S(=O)(=O)c4ccc5ncccc5c4)CC3)C2)c1 [Compound 132, (S)-1-(3-(3-methoxypropylsulfonyl)phenoxy)-3-((R)-8-(quinolin-6-ylsulfonyl)-1-oxa-8-azaspiro[4.5]decan-3-ylamino)propan-2-ol]	739
NC(=O)CCS(=O)(=O)c1cccc(OC[C@@H](O)CN[C@H]2COC3(CCN(S(=O)(=O)c4ccc5ncccc5c4)CC3)C2)c1 [Compound 133, 3-(3-((S)-2-hydroxy-3-((R)-8-(quinolin-6-ylsulfonyl)-1-oxa-8-azaspiro[4.5]decan-3-ylamino)propoxy)phenylsulfonyl)propanamide]	443
O=S(=O)(CCO)c1cccc(OC[C@@H](O)CN[C@H]2COC3(CCN(S(=O)(=O)c4cccc(-c5cccc(F)n5)c4)CC3)C2)c1 [Compound 134, (S)-1-((R)-8-(3-(6-fluoropyridin-2-yl)phenylsulfonyl)-1-oxa-8-azaspiro[4.5]decan-3-ylamino)-3-(3-(2-hydroxyethylsulfonyl)phenoxy)propan-2-ol]	55.1
O=S(=O)(CCCO)c1cccc(OC[C@@H](O)CN[C@H]2COC3(CCN(S(=O)(=O)c4cnc5ccccc5c4)CC3)C2)c1 [Compound 135, 3-(3-((S)-2-hydroxy-3-((R)-8-(quinolin-3-ylsulfonyl)-1-oxa-8-azaspiro[4.5]decan-3-ylamino)propoxy)phenylsulfonyl)propan-1-ol]	88.8
NC(=O)CS(=O)(=O)c1cccc(OC[C@@H](O)CN[C@H]2COC3(CCN(S(=O)(=O)c4ccc5ncccc5c4)CC3)C2)c1 [Compound 137, 2-(3-((S)-2-hydroxy-3-((R)-8-(quinolin-6-ylsulfonyl)-1-oxa-8-azaspiro[4.5]decan-3-ylamino)propoxy)phenylsulfonyl)acetamide]	350
CCCS(=O)(=O)c1cccc(OC[C@@H](O)CN[C@H]2COC3(CCN(S(=O)(=O)c4cnc5ccccc5c4)CC3)C2)c1 [Compound 139, (S)-1-(3-(propylsulfonyl)phenoxy)-3-((R)-8-(quinolin-3-ylsulfonyl)-1-oxa-8-azaspiro[4.5]decan-3-ylamino)propan-2-ol]	36.2
O=S(=O)(CC1CC1)c1cccc(OC[C@@H](O)CN[C@H]2COC3(CCN(S(=O)(=O)c4cnc5ccccc5c4)CC3)C2)c1 [Compound 140, (S)-1-(3-(cyclopropylmethylsulfonyl)phenoxy)-3-((R)-8-(quinolin-3-ylsulfonyl)-1-oxa-8-azaspiro[4.5]decan-3-ylamino)propan-2-ol]	45.9
NC(=O)CCS(=O)(=O)c1cccc(OC[C@@H](O)CN[C@H]2COC3(CCN(S(=O)(=O)c4cnc5ccccc5c4)CC3)C2)c1 [Compound 142, 3-(3-((S)-2-hydroxy-3-((R)-8-(quinolin-3-ylsulfonyl)-1-oxa-8-azaspiro[4.5]decan-3-ylamino)propoxy)phenylsulfonyl)propanamide]	106
CCOC(=O)C(C)(C)S(=O)(=O)c1cccc(OC[C@@H](O)CN[C@H]2COC3(CCN(S(=O)(=O)c4cnc5ccccc5c4)CC3)C2)c1 [Compound 145, ethyl 2-(3-((S)-2-hydroxy-3-((R)-8-(quinolin-3-ylsulfonyl)-1-oxa-8-azaspiro[4.5]decan-3-ylamino)propoxy)phenylsulfonyl)-2-methylpropanoate]	81.9
O=S(=O)(c1cccc(OC[C@@H](O)CN[C@H]2COC3(CCN(S(=O)(=O)c4cnc5ccccc5c4)CC3)C2)c1)C1CC(O)C1 (stereo partly drawn) [Compound 146, 3-(3-((S)-2-hydroxy-3-((R)-8-(quinolin-3-ylsulfonyl)-1-oxa-8-azaspiro[4.5]decan-3-ylamino)propoxy)phenylsulfonyl)cyclobutanol]	104
O=S(=O)(c1ccc2ncccc2c1)N1CCC2(CC1)C[C@@H](NC[C@H](O)COc1cccc(S(=O)(=O)C3(CO)CC3)c1)CO2 [Compound 147, (S)-1-(3-(1-(hydroxymethyl)cyclopropylsulfonyl)phenoxy)-3-((R)-8-(quinolin-6-ylsulfonyl)-1-oxa-8-azaspiro[4.5]decan-3-ylamino)propan-2-ol]	53.3
COCCCS(=O)(=O)c1cccc(OC[C@@H](O)CN[C@H]2COC3(CCN(S(=O)(=O)c4cnc5ccccc5c4)CC3)C2)c1 [Compound 149, (S)-1-(3-(3-methoxypropylsulfonyl)phenoxy)-3-((R)-8-(quinolin-3-ylsulfonyl)-1-oxa-8-azaspiro[4.5]decan-3-ylamino)propan-2-ol]	97.3
CN1CCOc2ncc(S(=O)(=O)N3CCC4(CC3)C[C@@H](NC[C@H](O)COc3cccc(S(=O)(=O)CCCO)c3)CO4)cc21 [Compound 150, 3-(3-((S)-2-hydroxy-3-((R)-8-(1-methyl-2,3-dihydro-1H-pyrido[2,3-b][1,4]oxazin-7-ylsulfonyl)-1-oxa-8-azaspiro[4.5]decan-3-ylamino)propoxy)phenylsulfonyl)propan-1-ol]	227
CN1CCOc2ncc(S(=O)(=O)N3CCC4(CC3)C[C@@H](NC[C@H](O)COc3cccc(S(=O)(=O)CCO)c3)CO4)cc21 [Compound 151, (S)-1-(3-(2-hydroxyethylsulfonyl)phenoxy)-3-((R)-8-(1-methyl-2,3-dihydro-1H-pyrido[2,3-b][1,4]oxazin-7-ylsulfonyl)-1-oxa-8-azaspiro[4.5]decan-3-ylamino)propan-2-ol]	40.8
CN1CCOc2ncc(S(=O)(=O)N3CCC4(CC3)C[C@@H](NC[C@H](O)COc3cccc(S(C)(=O)=O)c3)CO4)cc21 [Compound 152, (S)-1-((R)-8-(1-methyl-2,3-dihydro-1H-pyrido[2,3-b][1,4]oxazin-7-ylsulfonyl)-1-oxa-8-azaspiro[4.5]decan-3-ylamino)-3-(3-(methylsulfonyl)phenoxy)propan-2-ol]	24.7
CN1CCOc2ncc(S(=O)(=O)N3CCC4(CC3)C[C@@H](NC[C@H](O)COc3cccc(S(=O)(=O)C5(CO)CC5)c3)CO4)cc21 [Compound 155, (S)-1-(3-(1-(hydroxymethyl)cyclopropylsulfonyl)phenoxy)-3-((R)-8-(1-methyl-2,3-dihydro-1H-pyrido[2,3-b][1,4]oxazin-7-ylsulfonyl)-1-oxa-8-azaspiro[4.5]decan-3-ylamino)propan-2-ol]	48.2

Now those with a lower IC50, led by results:

IC50 [nM]	Compound
12	O=S(=O)(c1cnc2ccccc2c1)N1CCC2(CC1)C[C@@H](NC[C@H](O)COc1cccc(S(=O)(=O)C(F)(F)CO)c1)CO2 [Compound 130, (S)-1-(3-(1,1-difluoro-2-hydroxyethylsulfonyl)phenoxy)-3-((R)-8-(quinolin-3-ylsulfonyl)-1-oxa-8-azaspiro[4.5]decan-3-ylamino)propan-2-ol]
23.7	COCS(=O)(=O)c1cccc(OC[C@@H](O)CN[C@H]2COC3(CCN(S(=O)(=O)c4ccc5ncccc5c4)CC3)C2)c1 [Compound 131, (S)-1-(3-(methoxymethylsulfonyl)phenoxy)-3-((R)-8-(quinolin-6-ylsulfonyl)-1-oxa-8-azaspiro[4.5]decan-3-ylamino)propan-2-ol]
18.8	O=S(=O)(c1cnc2ccccc2c1)N1CCC2(CC1)C[C@@H](NC[C@H](O)COc1cccc(S(=O)(=O)C3(CO)CC3)c1)CO2 [Compound 136, (S)-1-(3-(1-(hydroxymethyl)cyclopropylsulfonyl)phenoxy)-3-((R)-8-(quinolin-3-ylsulfonyl)-1-oxa-8-azaspiro[4.5]decan-3-ylamino)propan-2-ol]
20.4	O=S(=O)(c1cccc(OC[C@@H](O)CN[C@H]2COC3(CCN(S(=O)(=O)c4cnc5ccccc5c4)CC3)C2)c1)C1CCC1 [Compound 138, (S)-1-(3-(cyclobutylsulfonyl)phenoxy)-3-((R)-8-(quinolin-3-ylsulfonyl)-1-oxa-8-azaspiro[4.5]decan-3-ylamino)propan-2-ol]
11.6	COCS(=O)(=O)c1cccc(OC[C@@H](O)CN[C@H]2COC3(CCN(S(=O)(=O)c4cnc5ccccc5c4)CC3)C2)c1 [Compound 141, (S)-1-(3-(methoxymethylsulfonyl)phenoxy)-3-((R)-8-(quinolin-3-ylsulfonyl)-1-oxa-8-azaspiro[4.5]decan-3-ylamino)propan-2-ol]
13.2	O=S(=O)(c1cccc(OC[C@@H](O)CN[C@H]2COC3(CCN(S(=O)(=O)c4ccc5ncccc5c4)CC3)C2)c1)C1CC1 [Compound 143, (S)-1-(3-(cyclopropylsulfonyl)phenoxy)-3-((R)-8-(quinolin-6-ylsulfonyl)-1-oxa-8-azaspiro[4.5]decan-3-ylamino)propan-2-ol]
7.77	O=S(=O)(c1cccc(OC[C@@H](O)CN[C@H]2COC3(CCN(S(=O)(=O)c4cnc5ccccc5c4)CC3)C2)c1)C1CC1 [Compound 144, (S)-1-(3-(cyclopropylsulfonyl)phenoxy)-3-((R)-8-(quinolin-3-ylsulfonyl)-1-oxa-8-azaspiro[4.5]decan-3-ylamino)propan-2-ol]
21.8	O=S(=O)(c1ccc2ncccc2c1)N1CCC2(CC1)C[C@@H](NC[C@H](O)COc1cccc(S(=O)(=O)C(F)(F)CO)c1)CO2 [Compound 148, (S)-1-(3-(1,1-difluoro-2-hydroxyethylsulfonyl)phenoxy)-3-((R)-8-(quinolin-6-ylsulfonyl)-1-oxa-8-azaspiro[4.5]decan-3-ylamino)propan-2-ol]
18.8	CC(C)S(=O)(=O)c1cccc(OC[C@@H](O)CN[C@H]2COC3(CCN(S(=O)(=O)c4cnc5c(c4)N(C)CCO5)CC3)C2)c1 [Compound 153, (S)-1-(3-(isopropylsulfonyl)phenoxy)-3-((R)-8-(1-methyl-2,3-dihydro-1H-pyrido[2,3-b][1,4]oxazin-7-ylsulfonyl)-1-oxa-8-azaspiro[4.5]decan-3-ylamino)propan-2-ol]

Reference: patent publication US10927123B2, “Modulators of the beta-3 adrenergic receptor useful for the treatment or prevention of disorders related thereto” (Arena Pharmaceuticals, Inc., priority 2016, dated 2021)
